According to PubChem BioAssay AID2060507 (Molecular Pharmacology Branch, DTP, NCI, 2025):

Test system: 519858-162-T-J1-PDC complex spheroid viability
Assay: Anticancer human tumor 519858-162-T-J1-PDC patient-derived colon adenocarcinoma cell line growth inhibition [GQUAD]
Conditions: for IC50: curve of first compound; for viability, T/C: stronger effect = lower value; active = viability on the fitted dose curve at most 10% of control; inactive = the rest
Method in brief: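 Tumor cells were grown as complex spheroids with HUVEC endothelial cells and mesenchymal stem cells as stroma. G-quadruplex stabilizers were combined with targeted agents over half-log dilutions from near the clinical Cmax, or from 10 microM.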

[1] = second compound 0.0316 µM, first compound 0.0316 µM
[2] = second compound 0.0316 µM, first compound 0.1 µM
[3] = second compound 0.0316 µM, first compound 0.316 µM
[4] = second compound 0.0316 µM, first compound 1 µM
[5] = second compound 0.0316 µM, first compound 3.16 µM
[6] = second compound 0.0316 µM, first compound 10 µM
[7] = second compound 0.1 µM, first compound 0.0316 µM
[8] = second compound 0.1 µM, first compound 0.1 µM
[9] = second compound 0.1 µM, first compound 0.316 µM
[10] = second compound 0.1 µM, first compound 1 µM
[11] = second compound 0.1 µM, first compound 3.16 µM
[12] = second compound 0.1 µM, first compound 10 µM
[13] = second compound 0.316 µM, first compound 0.0316 µM
[14] = second compound 0.316 µM, first compound 0.1 µM
[15] = second compound 0.316 µM, first compound 0.316 µM
[16] = second compound 0.316 µM, first compound 1 µM
[17] = second compound 0.316 µM, first compound 3.16 µM
[18] = second compound 0.316 µM, first compound 10 µM
[19] = second compound 1 µM, first compound 0.0316 µM
[20] = second compound 1 µM, first compound 0.1 µM
[21] = second compound 1 µM, first compound 0.316 µM
[22] = second compound 1 µM, first compound 1 µM
[23] = second compound 1 µM, first compound 3.16 µM
[24] = second compound 1 µM, first compound 10 µM
[25] = second compound 3.16 µM, first compound 0.0316 µM
[26] = second compound 3.16 µM, first compound 0.1 µM
[27] = second compound 3.16 µM, first compound 0.316 µM
[28] = second compound 3.16 µM, first compound 1 µM
[29] = second compound 3.16 µM, first compound 3.16 µM
[30] = second compound 3.16 µM, first compound 10 µM
[31] = second compound 10 µM, first compound 0.0316 µM
[32] = second compound 10 µM, first compound 0.1 µM
[33] = second compound 10 µM, first compound 0.316 µM
[34] = second compound 10 µM, first compound 1 µM
[35] = second compound 10 µM, first compound 3.16 µM
[36] = second compound 10 µM, first compound 10 µM
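Also: spheroids exposed to compounds for 7 days.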
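For viability, T/C in this document: 100% = DMSO vehicle control viability.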

C=CC(=O)N1CCN(c2nc(=O)n(-c3c(C)ccnc3C(C)C)c3nc(-c4c(O)cccc4F)c(F)cc23)C(C)C1 (stereo unspecified) + Cc1cnc(CNC(=O)c2c(=O)c3ccc(N4CCCN(C)CC4)nc3n3c2sc2ccccc23)cn1
< 31.6 nM: IC50 (second compound 3.16 µM)
inactive: viability, T/C [1] 74.2% | viability, T/C [2] 91.8% | viability, T/C [3] 77.1% | viability, T/C [4] 89.3% | viability, T/C [5] 46.3% | viability, T/C [6] 103% | viability, T/C [7] 97% | viability, T/C [8] 70.4% | viability, T/C [9] 109% | viability, T/C [10] 92.3% | viability, T/C [11] 76.3% | viability, T/C [12] 82.9% | viability, T/C [13] 54.2% | viability, T/C [14] 53% | viability, T/C [15] 55.9% | viability, T/C [16] 57% | viability, T/C [17] 65.2% | viability, T/C [18] 76.6% | viability, T/C [19] 69.1% | viability, T/C [20] 56.3% | viability, T/C [21] 68.2% | viability, T/C [22] 56.9% | viability, T/C [23] 40.3% | viability, T/C [24] 45.5% | viability, T/C [25] 46.5% | viability, T/C [26] 49.6% | viability, T/C [27] 41.8% | viability, T/C [28] 55.8% | viability, T/C [29] 56% | viability, T/C [30] 42.9% | viability, T/C [31] 60% | viability, T/C [32] 46.4% | viability, T/C [33] 42.8% | viability, T/C [34] 48.2% | viability, T/C [35] 48.7% | viability, T/C [36] 42.8%
2440 nM: IC50 (second compound 1 µM)
72.9 nM: IC50 (second compound 10 µM)
> 10000 nM: IC50 (second compound 0.0316 µM) | IC50 (second compound 0.1 µM) | IC50 (second compound 0.316 µM)

CC1COCCN1c1cc(C2(O)CC3CCC(C2)O3)c2cnn(-c3ccn[nH]3)c2n1 (stereo unspecified) + Cc1cnc(CNC(=O)c2c(=O)c3ccc(N4CCCN(C)CC4)nc3n3c2sc2ccccc23)cn1
< 31.6 nM: IC50 (second compound 3.16 µM) | IC50 (second compound 10 µM)
235 nM: IC50 (second compound 1 µM)
inactive: viability, T/C [1] 64.5% | viability, T/C [2] 77.8% | viability, T/C [3] 92.2% | viability, T/C [4] 77.6% | viability, T/C [5] 82% | viability, T/C [6] 30.6% | viability, T/C [7] 106% | viability, T/C [8] 85.8% | viability, T/C [9] 96.3% | viability, T/C [10] 44.8% | viability, T/C [11] 61.3% | viability, T/C [12] 57.7% | viability, T/C [13] 65.6% | viability, T/C [14] 60% | viability, T/C [15] 51.7% | viability, T/C [16] 62.7% | viability, T/C [17] 49.2% | viability, T/C [18] 29.9% | viability, T/C [19] 59.3% | viability, T/C [20] 60.8% | viability, T/C [21] 41.6% | viability, T/C [22] 43.4% | viability, T/C [23] 50.5% | viability, T/C [24] 39.6% | viability, T/C [25] 45.7% | viability, T/C [26] 38.9% | viability, T/C [27] 44.9% | viability, T/C [28] 42.4% | viability, T/C [29] 26.8% | viability, T/C [30] 23.8% | viability, T/C [31] 37.7% | viability, T/C [32] 44% | viability, T/C [33] 37.7% | viability, T/C [34] 39.2% | viability, T/C [35] 34.1% | viability, T/C [36] 23.7%
6310 nM: IC50 (second compound 0.0316 µM)
3200 nM: IC50 (second compound 0.316 µM)
3160 nM: IC50 (second compound 0.1 µM)

CCc1c2c(nc3ccc(O)cc13)-c1cc3c(c(=O)n1C2)COC(=O)[C@]3(O)CC + Cc1cnc(CNC(=O)c2c(=O)c3ccc(N4CCCN(C)CC4)nc3n3c2sc2ccccc23)cn1
inactive: viability, T/C (second compound 0.0316 µM, first compound 0.000999 µM) 121% | viability, T/C (second compound 0.0316 µM, first compound 0.00316 µM) 57.5% | viability, T/C (second compound 0.0316 µM, first compound 0.00999 µM) 81.9% | viability, T/C [1] 67.6% | viability, T/C (second compound 0.0316 µM, first compound 0.0999 µM) 74.8% | viability, T/C [3] 64.7% | viability, T/C (second compound 0.1 µM, first compound 0.000999 µM) 67.5% | viability, T/C (second compound 0.1 µM, first compound 0.00316 µM) 105% | viability, T/C (second compound 0.1 µM, first compound 0.00999 µM) 89.3% | viability, T/C [7] 55.3% | viability, T/C (second compound 0.1 µM, first compound 0.0999 µM) 61.1% | viability, T/C [9] 48.2% | viability, T/C (second compound 0.316 µM, first compound 0.000999 µM) 95.1% | viability, T/C (second compound 0.316 µM, first compound 0.00316 µM) 94.8% | viability, T/C (second compound 0.316 µM, first compound 0.00999 µM) 66.2% | viability, T/C [13] 67.2% | viability, T/C (second compound 0.316 µM, first compound 0.0999 µM) 65% | viability, T/C [15] 69.1% | viability, T/C (second compound 1 µM, first compound 0.000999 µM) 66.6% | viability, T/C (second compound 1 µM, first compound 0.00316 µM) 42.9% | viability, T/C (second compound 1 µM, first compound 0.00999 µM) 72.2% | viability, T/C [19] 55% | viability, T/C (second compound 1 µM, first compound 0.0999 µM) 75% | viability, T/C [21] 80.4% | viability, T/C (second compound 3.16 µM, first compound 0.000999 µM) 35.9% | viability, T/C (second compound 3.16 µM, first compound 0.00316 µM) 48.5% | viability, T/C (second compound 3.16 µM, first compound 0.00999 µM) 47.8% | viability, T/C [25] 47.6% | viability, T/C (second compound 3.16 µM, first compound 0.0999 µM) 52.8% | viability, T/C [27] 55% | viability, T/C (second compound 10 µM, first compound 0.000999 µM) 42.9% | viability, T/C (second compound 10 µM, first compound 0.00316 µM) 38% | viability, T/C (second compound 10 µM, first compound 0.00999 µM) 62.9% | viability, T/C [31] 47% | viability, T/C (second compound 10 µM, first compound 0.0999 µM) 50.3% | viability, T/C [33] 52.1%
> 316 nM: IC50 (second compound 0.0316 µM) | IC50 (second compound 0.1 µM) | IC50 (second compound 0.316 µM) | IC50 (second compound 1 µM)
< 0.999 nM: IC50 (second compound 3.16 µM) | IC50 (second compound 10 µM)
